The source of these data is patent US10752591B2, “18-20 member bi-polycyclic compounds” (Haro Pharmaceutical Inc., priority 2014, dated 2020).

Each structure is given as a SMILES string.

In data set [1] the target is T1, purified recombinant human HDAC-6 (Homo sapiens, UniProt Q9UBN7).
T1 construct: purchased Cayman Chem 10009465
T1 sequence (Q9UBN7 1-1215): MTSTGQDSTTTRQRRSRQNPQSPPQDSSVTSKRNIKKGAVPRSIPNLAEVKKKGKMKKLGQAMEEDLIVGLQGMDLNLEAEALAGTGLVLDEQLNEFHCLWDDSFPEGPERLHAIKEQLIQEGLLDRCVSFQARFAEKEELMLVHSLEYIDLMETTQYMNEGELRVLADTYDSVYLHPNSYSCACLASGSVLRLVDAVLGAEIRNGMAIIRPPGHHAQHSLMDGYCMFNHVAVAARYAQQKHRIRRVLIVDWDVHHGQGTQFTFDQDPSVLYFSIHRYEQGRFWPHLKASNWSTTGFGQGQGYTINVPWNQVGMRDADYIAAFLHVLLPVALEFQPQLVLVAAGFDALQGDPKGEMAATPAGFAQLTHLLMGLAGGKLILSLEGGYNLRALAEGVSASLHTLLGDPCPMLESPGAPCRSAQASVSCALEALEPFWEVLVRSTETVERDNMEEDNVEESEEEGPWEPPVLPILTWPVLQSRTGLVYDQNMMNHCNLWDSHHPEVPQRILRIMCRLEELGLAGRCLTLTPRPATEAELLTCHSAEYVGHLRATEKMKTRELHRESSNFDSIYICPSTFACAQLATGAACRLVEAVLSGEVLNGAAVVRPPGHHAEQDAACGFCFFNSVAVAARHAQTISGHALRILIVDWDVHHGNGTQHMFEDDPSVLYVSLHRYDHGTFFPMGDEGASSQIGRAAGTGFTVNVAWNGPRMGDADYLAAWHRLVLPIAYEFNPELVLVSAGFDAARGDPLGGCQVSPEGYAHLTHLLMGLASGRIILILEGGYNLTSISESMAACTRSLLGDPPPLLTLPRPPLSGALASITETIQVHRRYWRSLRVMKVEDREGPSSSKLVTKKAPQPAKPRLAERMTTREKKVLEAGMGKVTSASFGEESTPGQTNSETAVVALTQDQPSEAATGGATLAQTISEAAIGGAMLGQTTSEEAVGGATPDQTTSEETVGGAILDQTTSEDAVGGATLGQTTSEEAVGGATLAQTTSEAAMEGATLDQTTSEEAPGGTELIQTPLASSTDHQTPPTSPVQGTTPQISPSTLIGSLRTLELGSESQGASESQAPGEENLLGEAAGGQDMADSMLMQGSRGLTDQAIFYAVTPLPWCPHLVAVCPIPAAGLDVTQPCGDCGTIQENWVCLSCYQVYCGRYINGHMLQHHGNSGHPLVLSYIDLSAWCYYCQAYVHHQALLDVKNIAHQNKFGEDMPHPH
Description: HDAC-6 enzymatic inhibition (AMC fluorogenic peptide deacetylation). Format: biochemical. Conditions: relative to compound 17. As to the method: The effect of compounds on the enzymatic activity of purified recombinant human HDAC-1, -2, -3, -6, and -8 activity and of purified rat liver HDAC was examined by measuring the deacetylation of synthetic peptides in various preparations of HDACs. HDAC assays were performed using a two-step enzymatic reaction where enzyme activity is correlated to the release of […] (AMC). AMC fluorescence is measured in a fluorescent plate reading using λex380 nm and λen440 nm.
The reaction was allowed to proceed for 40 min at 37° C., after which developer solution (0.5% trypsin, 10 μM trichostatin A (TSA)) was added to obtain a final concentration of 0.1% trypsin, 2 μM TSA. After 30 minutes at room temperature, the amount of free fluorogenic AMC was measured as described above.

In data set [2] the test system is BE-2C neuroblastoma cells. Description: cytotoxicity, cell survival (CellTiterGlo) in BE-2C. The data set is classed as cell-based. Conditions: BE-2C cells. Here is the method: (§1) The cytotoxicity of compounds was examined and directly compared to compound 17, by measuring cell survival of clonal tumor cell lines IMR-32, BE2C (neuroblastoma), as well as MDA-MB-231, BT20, HCC-38 (Basal) and MCF7 (luminal) breast cancer cells (ATCC). Cells were cultured in phenol red-free RPMI medium supplemented with 10% FBS and 1 mM Ala-Glu. Typically, 10,000-20,000 cells/well were plated in a 96 well plate (Costar 3197). Cells were exposed to compounds or vehicle (1% DMSO final). Cells were maintained in the presence of compound for four or five days. Media and compounds were renewed every 48 hours. Cell survival was measured using the luminescence CellTiterGlo kit (Promega Corporation) and expressed as relative light unit as fold over DMSO.
(In general: Cellular ATP, detected with luciferase, serves as a proxy for viable cell number.)

The subject of data set [3] is MDA-MB-231 breast cancer cells. Description: cytotoxicity, cell survival (CellTiterGlo) in MDA-MB-231. Format: cell-based. Conditions: MDA-MB-231 cells. As to the method: as §1
In data set [4] the test system is Lys40 acetylated alpha tubulin. Description: intracellular acetylation of alpha-tubulin in BE-2C cells. The data set is classed as cell-based. Here is the method:
The effect of certain compounds on intracellular acetylation of target proteins was tested in high risk neuroblastoma cells, BE-2C and IMR-32 cells.
BE-2C cells were grown to confluence in phenol-red-free RPMI media supplemented with 10% FBS and 2.5 mM Ala-Glu. […] Total and Lys 40 acetylated alpha tubulin were detected using specific antibodies.
Beta actin, total and Lys382 acetylated p53, and Lys40 acetylated alpha, and total tubulin were detected using antibodies (Cell Signaling #8557, #2524 #2525, #12152 and #2144 respectively) using manufacturer recommended conditions.

The nature of data set [5]: mouse pharmacokinetics. The data set is classed as in vivo. Particulars: mice. As to the method:
Mouse pharmacokinetics studies were conducted in female athymic nude or male C57/B6 mice (n=3). Due to its very poor aqueous solubility, compound 17 was formulated in 66% PEG-400/33% H2O-1% Tween-80. In contrast compound 13 was formulated in 66% PEG-400/33% H2O. Compounds were administered PO (30 mg/kg) or IV (5 mg/kg), and plasma concentrations were measured by UV/HPLC.

Setting [6] is: PO (30 mg/kg) or IV (5 mg/kg), route per parameter not stated.

As for `CC1(C)CCC(C)(C)c2cc(-c3cc4cc(C(=O)NO)ccc4[nH]3)ccc21` [Compound 13], the “fold more potent than compound 17 in HDAC-6 inhibition” value in data set [1] is listed as “at least 50”. The “cytotoxic potency compared with compound 17, SAHA, Ricolinistat” value in data set [2] is “more potent than compound 17, SAHA or Ricolinistat”. Further, the “cytotoxic potency compared with compound 17, SAHA, Ricolinistat” value in data set [3] is on record as “more potent than compound 17, SAHA or Ricolinistat”. Moreover, the “alpha tubulin acetylation by LC-MS analysis” value in data set [4] is reported as “lack of increased alpha tubulin acetylation”. In addition, in data set [4] (5 μM, 16 hours), the “Lysin (K) 40 alpha-Tubulin acetylation” value is reported as “no significant acetylation”. Also, in data set [5], the “T max compared with compound 17” value was “markedly reduced” and the “oral bioavailability, AUC, Cmax compared with compound 17” value is listed as “markedly higher”. In data set [5] (setting [6]), the “AUC0-∞” value was 42.00 µM·h, the CLp was 0.24 mL/min/kg, the peak level (Cmax) was 5.54 µM and the mean residence time (MRT) was found to be 6.9 h. In addition, in data set [5] (setting [6]), the Tmax was 1.4 h and the “Vd,ss” value stood at 8 L/kg.

The term Cmax denotes the peak of the concentration-time curve. As a reminder, the MRT is a mean duration of stay, worked out from the concentration-time curve. For orientation: Tmax means the time from dosing to the highest level.
